≈ marks a conversion by molar mass, not a printed value.
Columns and labels:
[1] = biological target: T1, glycosomal T. b. rhodesiense glyceraldehyde-3-phosphate dehydrogenase (TbrGAPDH) (Trypanosoma brucei brucei, UniProt P22512); assay: Thermal stability assay (CD spectroscopy) regarding TbrGAPDH; type: binding; conditions: for ∆Tm of TbrGAPDH: vs TbrGAPDH alone
T1 construct: made in house; host or cells: E. coli BL21(DE3), pET28a
Experimental: Thermal unfolding of TbrGAPDH and TbrAK was studied by circular dichroism (CD) spectroscopy at 220 nm within the temperature range of 20–90°C using a heating rate of 40°C/h. […]
All measurements were done in a 0.5 mm cell and contained 0.1 %
(§1) DMSO and 2.5 mM EDTA to prevent enzyme activity. Thermal stability was analyzed in presence of 500 µM substrate to record the maximum stability limit, whereas compounds 1 to 5 were used at a concentration of 50 µM, being the highest concentration achievable for compound 2, to allow comparison of all compounds at the same concentration. For evaluation of the CD spectra, the buffer spectrum was subtracted from the protein CD spectrum. All thermal unfolding curves were fitted to a two-state model that had been published recently. The mean of three independent experiments are reported. […]

[2] = biological target: T2, adenosine kinase of T. b. rhodesiense (TbrAK) (Trypanosoma brucei rhodesiense, UniProt Q584S0); assay: Thermal stability assay (CD spectroscopy) regarding TbrAK; type: binding; conditions: for Tm of TbrAK: 13 µM TbrAK
T2 sequence (Q584S0 1-345): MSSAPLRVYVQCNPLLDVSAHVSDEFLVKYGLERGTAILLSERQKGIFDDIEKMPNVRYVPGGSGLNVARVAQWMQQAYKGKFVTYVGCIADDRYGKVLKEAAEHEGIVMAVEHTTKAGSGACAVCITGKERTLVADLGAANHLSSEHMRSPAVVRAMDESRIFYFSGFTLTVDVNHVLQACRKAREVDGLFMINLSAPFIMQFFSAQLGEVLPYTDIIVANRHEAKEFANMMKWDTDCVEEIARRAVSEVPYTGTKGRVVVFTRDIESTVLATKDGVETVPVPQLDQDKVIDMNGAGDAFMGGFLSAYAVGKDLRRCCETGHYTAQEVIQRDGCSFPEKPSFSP
Experimental: Thermal unfolding of TbrGAPDH and TbrAK was studied by circular dichroism (CD) spectroscopy at 220 nm within the temperature range of 20–90°C using a heating rate of 40°C/h.
as §1, with “TbrAK in buffer E1 (20 mM Hepes, 150 mM NaCl, pH 7.0) was used at 0.5 mg/ml (final concentration 13 µM). All measurements were done in a 0.5 mm cell and contained 0.1 % DMSO” for “DMSO”

[3] = biological target: T2, adenosine kinase of T. b. rhodesiense (TbrAK); assay: Radiometric assay for kinetic study of TbrAK
Experimental: (§2) Kinetic constants for adenosine phosphorylation by TbrAK were obtained by monitoring the conversion of [2-^3H]adenosine to [2-^3H]AMP. Reactions were executed at 37°C in a final volume of 30 µl containing 20 mM Hepes (pH 7.0), 50 mM NaCl, 167 µM ATP, 167 µM MgCl2, 0.34% BSA, and 0.34% DMSO. […] The concentration of [2-^3H]adenosine (0.1–12 µM) was chosen in consideration of Michaelis–Menten conditions for initial velocity measurements. The reaction was started by the addition of 1 ng (0.88 nM) TbrAK. The reactions were incubated and 5 µl aliquots were spotted on 5 mm diameter DE81-cellulose disks placed in a 96-well plate to stop the reaction. The disks were washed 3 times with 250 µl 5 mM ammonium formate, once with H2O, transferred to scintillation vials, and then soaked with 2 ml of a displacement solution (100 mM HCl, 200 mM KCl) and gently shaken for 1 minute to elute the phosphorylated products [9]. After adding 10 ml scintillation liquid, the samples were counted in scintillation counter. Km and Vmax with respect to adenosine and Ki for adenosine substrate-inhibition in absence and presence of compound 1 were determined by non-linear fit of the data to the substrate-inhibition model described elsewhere [10].

[4] = biological target: T2, adenosine kinase of T. b. rhodesiense (TbrAK); assay: HPLC activity assay for TbrAK; type: biochemical; conditions: for activity at 50 µM: 37°C, ADP/ATP ratio, read-out: TbrAK activity in presence of compound (% of activity without compound); for concentration dependence of the activation effect: range 1–750 µM, up to solubility limit
Experimental: TbrAK catalyzes the ATP-dependent phosphorylation of the 5′-hydroxyl moiety of adenosine to form AMP and ADP. The activity assay was based on HPLC separation of substrate and products (adenosine, AMP, ADP, and ATP). The mobile phase consisted of 35 mM KH2PO4, 6 mM tetrabutylammonium hydrogensulfate, (pH 7.0, adjusted with KOH), 125 mM EDTA, and 1% (v/v) acetonitrile. The separation was performed isocratically at a flow-rate of 1.5 ml/min and monitored at 254 nm. The standard reaction in 75 µl total volume containing 0.5 mM ATP, 0.5 mM adenosine, 0.5 mM MgCl2, 1% DMSO in buffer E1 (20 mM Hepes, 150 mM NaCl, pH 7.0) was started with the addition of 2 µg TbrAK (final concentration 0.7 µM) and incubated at 37°C for 10 min while shaking vigorously (600 rpm). […] All reactions were stopped by adding 75 µl mobile phase. 50 µl of the sample volume were injected for analysis and the resulting ADP/ATP ratios were calculated and used as a measure of activity. For comparative reasons the activity recorded in absence of compound was set to 100%. The mean of three independent measurements are reported.

[5] = Solubility limit in the assay mixture; type: physicochemical; conditions: HPLC activity assay mixture (buffer E1 with 1% DMSO), 37 °C, pH 7, aqueous buffer, kinetic from dmso stock, read-out: solubility limiting concentration
T. b. rhodesiense = system: T. b. rhodesiense; design: method as in PMID 17949068; conditions: in vitro, blood stage parasite; read-out: IC50 against blood stage T.b. rhodesiense; cited from earlier work
[6] = design: method as in PMID 17949068; conditions: cited from earlier work
[7] = system: bloodstream-form T. b. brucei TbAK RNAi cells; assay: Drug sensitivity test (Alamar blue) on TbAK RNAi knock-down mutant; type: cell-based
Experimental: The construction of the T. b. brucei adenosine kinase gene knock-down mutant has been described recently. Expression of a stem-loop construct targeting TbAK was induced by addition of 10 µg/ml tetracycline to the medium. Down-regulation of TbAK expression was verified by Northern blotting. Parasites were cultivated and drug sensitivity was tested using the Alamar blue test. IC50 values were calculated by nonlinear fitting to the sigmoidal dose-response curve using Origin® software. The assays were performed in triplicates for at least four times.

[8] = substrate: Nc1ncnc2c1ncn2[C@@H]1O[C@H](CO)[C@@H](O)[C@H]1O; assay: purified protein, by the assay type; conditions: other: in absence of compound 1, 167 µM ATP; pH 7.0; 37.0 °C
Experimental: as §2

[9] = 50 µM compound, 0.7 µM TbrAK, 10 min

T1 sequence (P22512 whole entry): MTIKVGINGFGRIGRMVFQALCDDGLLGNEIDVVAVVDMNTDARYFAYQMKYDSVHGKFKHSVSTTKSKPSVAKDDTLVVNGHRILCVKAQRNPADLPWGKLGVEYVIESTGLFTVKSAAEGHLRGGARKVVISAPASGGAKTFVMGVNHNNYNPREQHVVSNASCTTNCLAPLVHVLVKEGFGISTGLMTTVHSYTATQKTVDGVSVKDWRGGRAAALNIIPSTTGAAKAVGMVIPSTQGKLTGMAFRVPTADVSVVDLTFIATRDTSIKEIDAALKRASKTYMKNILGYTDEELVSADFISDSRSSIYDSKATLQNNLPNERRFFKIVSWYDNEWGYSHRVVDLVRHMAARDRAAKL

For `O=CC(O)COP(=O)(O)O` (racemic) [DL-GAP, DL-glyceraldehyde-3-phosphate, reference compound], the “Tm of TbrGAPDH” value ([1]; substrate at 500 µM) was 50.0 ± 0.7 °C and the “∆Tm of TbrGAPDH” value ([1]; substrate at 500 µM) was 2.4 °C.

With `Nc1ncnc2c1ncn2[C@@H]1O[C@H](COP(=O)(O)OP(=O)(O)OP(=O)(O)O)[C@@H](O)[C@H]1O` [ATP, reference compound] the “Tm of TbrAK” value ([2]; substrate at 500 µM) was 42.8±0.1 °C and the “ΔTm of TbrAK” value ([2]; substrate at 500 µM, vs apo TbrAK) was −0.3 °C.

For `NC(=O)c1ccc[n+]([C@@H]2O[C@H](COP(=O)([O-])OP(=O)(O)OC[C@H]3O[C@@H](n4cnc5c(N)ncnc54)[C@H](O)[C@@H]3O)[C@@H](O)[C@H]2O)c1` [NAD+, reference compound], the “Tm of TbrGAPDH” value ([1]; substrate at 500 µM) was 55.6 ± 0.2 °C and the “∆Tm of TbrGAPDH” value ([1]; substrate at 500 µM) was 8.0 °C.

With `Nc1ncnc2c1ncn2[C@@H]1O[C@H](CO)[C@@H](O)[C@H]1O` [adenosine] the ΔTm at 500 µM ([2]; read-out: ΔTm of TbrAK) was 7.6 °C, the “Tm of TbrAK” value ([2]; substrate at 500 µM) was 50.7±0.2 °C and the Ki [3] was 6.1 ± 1.4 µM.

With `Nc1ccc(Oc2ccc(-c3cc(N4CCOCC4)[nH]n3)cc2)cc1` [compound 2, 4-[4-(5-morpholine-4-yl-1H-pyrazol-3-yl)-phenoxy]phenylamine] the activity at 50 µM [4, 9] was 174 ± 5%, the fold induction at 50 µM ([4]; 10 min, pH 7, 50 µM compound, read-out: fold increase of TbrAK activity) was 1.7 and the “concentration dependence of the activation effect” value (shortened to “concentration dependence”) [4] was “concentration dependent”. The “Tm of TbrAK” value ([2]; compound at 50 µM) was 45.9±0.4 °C, the ΔTm at 50 µM ([2]; read-out: ΔTm of TbrAK) was 2.8 °C and the “Tm of TbrGAPDH” value ([1]; compound at 50 µM) was 47.0 ± 0.4 °C. The solubility [5] was no more than 50 µM and the IC50 (T. b. rhodesiense) was 17.7 µM.

In the case of `Nc1ccc(-n2nc(-c3ccc(Oc4ccccc4)cc3)cc2N2CCOCC2)cc1` [compound 3, 4-[5-morpholine-4-yl-3-(4-phenoxyphenyl)-pyrazol-1-yl]phenylamine], the activity at 50 µM [4, 9] is reported as 110 ± 1%, the “concentration dependence” value [4] is reported as “did not activate TbrAK” and the “Tm of TbrAK” value ([2]; compound at 50 µM) is reported as 42.8±0.2 °C. For the same molecule, the ΔTm at 50 µM ([2]; read-out: ΔTm of TbrAK) was -0.3 °C, the “Tm of TbrGAPDH” value ([1]; compound at 50 µM) was 45.5 ± 0.6 °C and the IC50 (T. b. rhodesiense) was 10.3 µM.

With `c1ccc(Oc2ccc(-c3cc(N4CCNCC4)[nH]n3)cc2)cc1` [compound 4] the activity at 50 µM [4, 9] was 109 ± 1%, the EC50 ([4]; 0.5 mM ATP, 0.5 mM adenosine, 0.7 µM TbrAK, read-out: EC50 of TbrAK activation (HPLC assay)) was greater than 750 µM and the “fold increase of EC50 relative to compound 1” value ([4]; HPLC assay) was “at least 20 fold”. For the same molecule, the “concentration dependence” value [4] was “concentration dependent”, the “Tm of TbrAK” value ([2]; compound at 50 µM) was 43.2±0.1 °C and the ΔTm at 50 µM ([2]; read-out: ΔTm of TbrAK) was 0.1 °C. The “Tm of TbrGAPDH” value ([1]; compound at 50 µM) was 47.0 ± 0.1 °C, the solubility [5] was 750 µM (≈ 240 µg/mL) and the IC50 (T. b. rhodesiense) was 1.1 µM. The “cytotoxicity / general toxicity” value [6] was “increased general toxicity”.

In the case of `c1ccc(Oc2ccc(-c3cc[nH]n3)cc2)cc1` [compound 5, 3-(4-phenoxyphenyl)-1H-pyrazole], the activity at 50 µM [4, 9] is reported as 102 ± 2%, the “concentration dependence” value [4] is reported as “did not activate TbrAK” and the “Tm of TbrAK” value ([2]; compound at 50 µM) is reported as 43.4±0.1 °C. For the same molecule, the ΔTm at 50 µM ([2]; read-out: ΔTm of TbrAK) was 0.3 °C, the “IC50 difference between induced and non-induced TbAK RNAi cells” value [7] was “did not exhibit any IC50 difference” and the “Tm of TbrGAPDH” value ([1]; compound at 50 µM) was 46.7 ± 0.2 °C. The IC50 (T. b. rhodesiense) was greater than 65 µM and the IC50 ([6]; read-out: general toxicity IC50) was greater than 136 µM.

B1: adenosine kinase of T. b. rhodesiense (TbrAK) (Trypanosoma brucei brucei TREU927) (protein)
chain: T2 sequence (Q584S0 1-345)
Work on B1 yielded a Km [8] of 0.99 ± 0.05 µM.

From paper PMC2724708, “Adenosine Kinase of T. b. rhodesiense Identified as the Putative Target of 4-[5-(4-phenoxyphenyl)-2H-pyrazol-3-yl]morpholine Using Chemical Proteomics” (PLoS Neglected Tropical Diseases, 2009)
